The subject of data set [1] is P. aeruginosa, 32104. The data set is described as follows: antibacterial activity (MIC), standard method of Japanese Society of Chemotherapy. The conditions noted are these: Pseudomonas aeruginosa.
Data set [2] deals with S. epidermidis, 56500. The data set is described as above. The conditions noted are these: Staphylococcus epidermidis, 56500, S. epidermidis.
The subject of data set [3] is S. pneumoniae, J24 (penicillin-intermediate resistant bacteria). The description is as above. Conditions: Streptococcus pneumoniae.
Data set [4] has as its system S. aureus, 209P. The description is as above. The conditions noted are these: Staphylococcus aureus.
The test system of data set [5] is E. coli NIHJ. Described as above. Conditions: Escherichia coli.
For data set [6], the system named is P. vulgaris, 08601. The data set is described as above. The conditions noted are these: Proteus vulgaris, 08601, P. vulgaris.
In data set [7] the test system is S. aureus, 87037 (LVFX-resistant MRSA). The data set is described as above. Conditions: Staphylococcus aureus, MRSA, S. aureus, 87037 (LVFX-resistant MRSA).
In data set [8] the test system is P. aeruginosa, 32121. The data set is described as above. The conditions noted are these: Pseudomonas aeruginosa.
The test system of data set [9] is S. marscecens, 10100. The data set is described as above.
In data set [10] the test system is E. faecalis, ATCC 19433. Described as above. The conditions noted are these: Enterococcus faecalis, ATCC19433, E. faecalis.
In data set [11] the target is hERG K+ channel (Homo sapiens, UniProt Q12809). The experiment in a line: hERG-K^+ channel blocking effect.
For data set [12], the system named is Mycobacterium tuberculosis (sensitive bacteria). The data set is described as follows: anti-Mycobacterium tuberculosis (sensitive bacteria) activity, MIC. The format is cell-based.
The test system of data set [13] is Mycobacterium tuberculosis (quinolone sensitive). The experiment in a line: anti-Mycobacterium tuberculosis (quinolone sensitive) activity, MIC. Format: cell-based.

Values after ≈ are worked out from the molar mass of the structure shown. Bounds are passed on as bounds.

Chain of hERG K+ channel (Q12809 whole entry): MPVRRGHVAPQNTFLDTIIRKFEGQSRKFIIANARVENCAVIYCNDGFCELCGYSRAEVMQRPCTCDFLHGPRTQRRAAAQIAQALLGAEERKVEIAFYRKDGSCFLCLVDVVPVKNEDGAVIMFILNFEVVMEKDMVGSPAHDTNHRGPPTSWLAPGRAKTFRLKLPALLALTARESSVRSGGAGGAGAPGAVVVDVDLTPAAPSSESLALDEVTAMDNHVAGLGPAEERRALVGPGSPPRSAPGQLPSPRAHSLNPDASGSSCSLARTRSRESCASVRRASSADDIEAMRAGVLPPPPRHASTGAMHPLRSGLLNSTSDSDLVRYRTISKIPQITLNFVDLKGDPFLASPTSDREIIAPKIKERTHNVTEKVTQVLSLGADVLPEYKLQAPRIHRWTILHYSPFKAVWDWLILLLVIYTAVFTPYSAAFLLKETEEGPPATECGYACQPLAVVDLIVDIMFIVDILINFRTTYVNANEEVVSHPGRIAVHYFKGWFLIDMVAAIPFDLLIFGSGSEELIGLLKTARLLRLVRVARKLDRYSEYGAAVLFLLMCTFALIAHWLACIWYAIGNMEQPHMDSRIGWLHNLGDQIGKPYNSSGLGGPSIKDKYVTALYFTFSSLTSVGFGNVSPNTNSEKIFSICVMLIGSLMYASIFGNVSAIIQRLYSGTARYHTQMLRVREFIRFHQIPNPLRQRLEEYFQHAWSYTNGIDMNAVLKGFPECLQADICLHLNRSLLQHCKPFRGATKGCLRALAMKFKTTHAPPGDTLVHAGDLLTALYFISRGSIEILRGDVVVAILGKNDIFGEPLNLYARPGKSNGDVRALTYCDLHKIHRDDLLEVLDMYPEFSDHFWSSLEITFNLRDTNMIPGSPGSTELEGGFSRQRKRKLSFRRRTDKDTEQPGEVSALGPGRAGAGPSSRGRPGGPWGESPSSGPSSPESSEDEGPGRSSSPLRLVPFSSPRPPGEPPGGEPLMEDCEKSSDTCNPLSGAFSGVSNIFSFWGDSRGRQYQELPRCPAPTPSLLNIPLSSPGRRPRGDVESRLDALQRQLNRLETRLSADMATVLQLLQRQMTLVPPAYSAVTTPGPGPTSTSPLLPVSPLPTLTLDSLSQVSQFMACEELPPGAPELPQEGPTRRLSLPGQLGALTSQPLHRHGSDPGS

For `COc1c(N2CC(C)C(C)(N)C2)c(F)cc2c(=O)c(C(=O)O)cn([C@@H]3C[C@@H]3F)c12` (relative stereo) [Example 1, 7-[(3R*,4S*)-3-Amino-3,4-dimethylpyrrolidin-1-yl]-6-fluoro-1-[(1R,2S)-2-fluorocyclopropyl]-8-methoxy-1,4-dihydro-4-oxoguinoline-3-carboxylic acid], the MIC is 0.39 µg/mL (≈ 0.957 µM) in data set [1]; 0.1 µg/mL (≈ 0.245 µM) in data set [2]; 0.1 µg/mL (≈ 0.245 µM) in [3]; 0.025 µg/mL (≈ 0.0614 µM) in data set [4]; 0.025 µg/mL (≈ 0.0614 µM) in data set [5]; 0.05 µg/mL (≈ 0.123 µM) in [6]. Also, the MIC in [7] amounted to 0.78 µg/mL (≈ 1.91 µM); in [8] it was 0.2 µg/mL (≈ 0.491 µM); in data set [9], 0.2 µg/mL (≈ 0.491 µM); in [10], 0.2 µg/mL (≈ 0.491 µM).
With `CCC1CN(c2c(F)cc3c(=O)c(C(=O)O)cn([C@@H]4C[C@@H]4F)c3c2OC)CC1(C)N` (relative stereo) [Example 14, 7-[(3R*,4R*)-3-Amino-4-ethyl-3-methylpyrrolidin-1-yl]-6-fluoro-1-[(1R,2S)-2-fluorocyclopropyl]-8-methoxy-1,4-dihydro-4-oxoquinoline-3-carboxylic acid], the melting point was 167 to 169 °C.
`COc1c(N2CC(F)[C@](C)(N)C2)c(F)cc2c(=O)c(C(=O)O)cn([C@@H]3C[C@@H]3F)c12` (single isomer, unassigned) [Example 25] gave a melting point of 160 to 163 °C. In [11], this molecule displayed an inhibition at 30 µM of 2 ± 7.2%, an inhibition at 100 µM of 4.2 ± 7.9% and an inhibition at 300 µM of 17.1 ± 14.4%.
`COc1c(N2CC(F)[C@](C)(N)C2)c(F)cc2c(=O)c(C(=O)O)cn([C@@H]3C[C@@H]3F)c12` (single isomer, unassigned) [Example 26] came in with a melting point of 206 to 208 °C.
Still for that read-out and setting: with `COc1c(N2CC(OC)C(C)(N)C2)c(F)cc2c(=O)c(C(=O)O)cn([C@@H]3C[C@@H]3F)c12` (stereo partly drawn) [Example 18, 7-(3-Amino-4-methoxy-3-methylpyrrolidine-1-yl)-6-fluoro-1-[(1R,2S)-2-fluorocyclopropyl]-8-methoxy-1,4-dihydro-4-oxoquinoline-3-carboxylic acid] the figure was 150 to 151 °C; with `COc1c(N2CC(OC)C(C)(N)C2)c(F)cc2c(=O)c(C(=O)O)cn([C@@H]3C[C@@H]3F)c12` (stereo partly drawn) [Example 19, 7-(3-Amino-4-methoxy-3-methylpyrrolidine-1-yl)-6-fluoro-1-[(1R,2S)-2-fluorocyclopropyl]-8-methoxy-1,4-dihydro-4-oxoquinoline-3-carboxylic acid], 162 to 163 °C.
In turn, `COc1c(N2C[C@H](CF)[C@](C)(N)C2)c(F)cc2c(=O)c(C(=O)O)cn([C@@H]3C[C@@H]3F)c12` [Example 20, 7-[(3S,4S)-3-Amino-4-fluoromethyl-3-methylpyrrolidin-1-yl]-6-fluoro-1-[(1R,2S)-2-fluoro-1-cyclopropyl]-8-methoxy-1,4-dihydro-4-oxoquinoline-3-carboxylic acid] displayed a melting point of 187 to 189 °C. In data set [11], this molecule gave an inhibition at 30 µM of 1.4 ± 4.5%, an inhibition at 100 µM of 8.5 ± 6.1% and an inhibition at 300 µM of 14.5 ± 6%.
In the case of `Cc1c(N2C[C@H](CF)[C@](C)(N)C2)c(F)cc2c(=O)c(C(=O)O)cn(C3CC3)c12` [Example 23, 7-[(3S,4S)-3-Amino-4-fluoromethyl-3-methylpyrrolidin-1-yl]-1-cyclopropyl-6-fluoro-8-methyl-1,4-dihydro-4-oxoquinoline-3-carboxylic acid], the melting point fell in the range of 212 to 215 °C. The MIC in [2] amounted to 0.05 µg/mL (≈ 0.128 µM). This molecule had a minimum inhibitory concentration (MIC) in data set [3] of 0.05 µg/mL (≈ 0.128 µM). In [11], this molecule had an inhibition at 30 µM of 3 ± 4.1%, an inhibition at 100 µM of 4.6 ± 4.7% and an inhibition at 300 µM of 16.7 ± 8.4%. In data set [4], this molecule displayed an MIC of 0.025 µg/mL (≈ 0.0639 µM). Further, in [5], the MIC is not above 0.003 µg/mL. This molecule also gave an MIC in data set [6] of 0.006 µg/mL (≈ 0.0153 µM). The MIC in data set [7] was found to be 0.39 µg/mL (≈ 0.996 µM). Moreover, 0.05 µg/mL (≈ 0.128 µM) was the least that counted as inhibitory in [8] (MIC). In addition, the MIC in [9] was determined as 0.05 µg/mL (≈ 0.128 µM). This molecule returned an MIC in [10] of 0.1 µg/mL (≈ 0.255 µM).
For `COc1c(N2C[C@@H](CF)[C@@](C)(N)C2)c(F)cc2c(=O)c(C(=O)O)cn([C@@H]3C[C@@H]3F)c12` [Example 24, 7-[(3R,4R)-3-Amino-4-fluoromethyl-3-methylpyrrolidin-1-yl]-6-fluoro-1-[(1R,2S)-2-fluoro-1-cyclopropyl]-8-methoxy-1,4-dihydro-4-oxoquinoline-3-carboxylic acid], the melting point fell in the range of 185 to 188 °C.
`COc1c(N2CC(C)[C@@](N)(CF)C2)c(F)cc2c(=O)c(C(=O)O)cn([C@@H]3C[C@@H]3F)c12` (stereo partly drawn) [Example 28, 7-[(3S)-3-Amino-3-fluoromethyl-4-methylpyrrolidin-1-yl]-6-fluoro-1-[(1R,2S)-2-fluoro-1-cyclopropyl]-8-methoxy-1,4-dihydro-4-oxoquinoline-3-carboxylic acid] came in with a melting point of 167 to 169 °C. This molecule also came in with an MIC in data set [2] of 0.05 µg/mL (≈ 0.118 µM). This molecule displayed an MIC in data set [3] of 0.1 µg/mL (≈ 0.235 µM). Moreover, the lowest concentration to inhibit growth in data set [4] (MIC) was 0.025 µg/mL (≈ 0.0588 µM). For the same molecule, in [5], the MIC came out at 0.025 µg/mL (≈ 0.0588 µM). In [6], it took 0.05 µg/mL (≈ 0.118 µM) to inhibit growth (MIC). For the same molecule, in data set [7], the MIC was found to be 0.2 µg/mL (≈ 0.47 µM). Moreover, the MIC in data set [8] was 0.39 µg/mL (≈ 0.917 µM). Moreover, it took 0.39 µg/mL (≈ 0.917 µM) to inhibit growth in [9] (MIC). The same molecule gave an MIC in data set [10] of 0.2 µg/mL (≈ 0.47 µM).
For the molecule `Cc1c(N2CC(C)[C@@](N)(CF)C2)c(F)cc2c(=O)c(C(=O)O)cn([C@@H]3C[C@@H]3F)c12` (stereo partly drawn) [Example 31, 7-[(3S)-3-Amino-3-fluoromethyl-4-methylpyrrolidin-1-yl]-6-fluoro-1-[(1R,2S)-2-fluoro-1-cyclopropyl]-8-methyl-1,4-dihydro-4-oxoquinoline-3-carboxylic acid], the melting point was in the range of 200 to 203 °C. Moreover, it took 0.025 µg/mL (≈ 0.0611 µM) to inhibit growth in data set [2] (MIC). In data set [3], this molecule gave an MIC of 0.05 µg/mL (≈ 0.122 µM). In [4], this molecule returned an MIC of 0.012 µg/mL (≈ 0.0293 µM). The minimal inhibitory concentration (MIC) in [5] worked out at 0.006 µg/mL (≈ 0.0147 µM). Also, the minimum inhibitory concentration (MIC) in data set [6] turned out to be 0.012 µg/mL (≈ 0.0293 µM). This molecule gave an MIC in data set [7] of 0.1 µg/mL (≈ 0.244 µM). The same molecule gave a minimum inhibitory concentration (MIC) in data set [8] of 0.05 µg/mL (≈ 0.122 µM). In [9], this molecule gave an MIC of 0.1 µg/mL (≈ 0.244 µM). The molecule also returned an MIC in [10] of 0.1 µg/mL (≈ 0.244 µM).
Take `CO[C@H]1/C=C/O[C@@]2(C)Oc3c(C)c(O)c4c(O)c(c(/C=N/N5CCN(C)CC5)c(O)c4c3C2=O)NC(=O)/C(C)=C\C=C\[C@H](C)[C@H](O)[C@@H](C)[C@@H](O)[C@@H](C)[C@H](OC(C)=O)[C@@H]1C` [RFP, Rifampicin]: the MIC in data set [12] (H37RV, strain H37Rv) came to 0.125 µg/mL (≈ 0.152 µM); in data set [12] (strain Kurono) it was 0.06 µg/mL (≈ 0.0729 µM); in data set [12] (strain Ravenel) it was 0.125 µg/mL (≈ 0.152 µM); in [12] (strain TB-s 2) it was 0.03 µg/mL (≈ 0.0365 µM); in data set [12] (strain TB-s 3) it was 0.125 µg/mL (≈ 0.152 µM); in [12] (strain TB-s 4), 0.06 µg/mL (≈ 0.0729 µM). Further, the minimum inhibitory concentration (MIC) in data set [12] (strain TB-s 5) was 0.06 µg/mL (≈ 0.0729 µM); in data set [12] (strain TB-s 6) it was 0.125 µg/mL (≈ 0.152 µM); in data set [12] (strain TB-s 7) it was 0.06 µg/mL (≈ 0.0729 µM); in data set [12] (strain TB-s 8) it was 0.015 µg/mL (≈ 0.0182 µM); in [12] (strain TB-s 9), 0.06 µg/mL (≈ 0.0729 µM); in data set [12] (strain TB-s 10), 0.06 µg/mL (≈ 0.0729 µM). Besides, the MIC was determined as 0.06 µg/mL (≈ 0.0729 µM) in data set [12] (strain TB-s 11); 0.125 µg/mL (≈ 0.152 µM) in data set [12] (strain TB-s 12); 0.06 µg/mL (≈ 0.0729 µM) in [12] (strain TB-s 13); 0.03 µg/mL (≈ 0.0365 µM) in [12] (strain TB-s 14); 0.06 µg/mL (≈ 0.0729 µM) in data set [12] (strain TB-s 15); 0.06 µg/mL (≈ 0.0729 µM) in data set [12] (strain TB-s 16). Besides, the minimal inhibitory concentration (MIC) worked out at 0.06 µg/mL (≈ 0.0729 µM) in data set [12] (strain TB-s 17); 0.03 µg/mL (≈ 0.0365 µM) in [12] (strain TB-s 18); 0.125 µg/mL (≈ 0.152 µM) in [12] (strain TB-s 19); 0.25 µg/mL (≈ 0.304 µM) in data set [12] (strain TB-s 20); 0.03 µg/mL (≈ 0.0365 µM) in [12] (strain TB-s 21); 0.015 µg/mL (≈ 0.0182 µM) in data set [12] (strain TB-s 22). The MIC was more than 128 µg/mL in data set [13] (strain 1 (QR-3)); more than 128 µg/mL in [13] (strain 2 (QR-6)); 128 µg/mL (≈ 156 µM) in [13] (strain 3 (QR-1)); more than 128 µg/mL in [13] (strain 4 (QR-9)); 16 µg/mL (≈ 19.4 µM) in data set [13] (strain MDR 1); 128 µg/mL (≈ 156 µM) in data set [13] (strain MDR 3). For the same molecule, the MIC was 64 µg/mL (≈ 77.8 µM) in data set [13] (strain MDR 4); 32 µg/mL (≈ 38.9 µM) in data set [13] (strain MDR 5); more than 128 µg/mL in data set [13] (strain MDR 7); 128 µg/mL (≈ 156 µM) in data set [13] (strain MDR 9); 128 µg/mL (≈ 156 µM) in [13] (strain MDR 12); 16 µg/mL (≈ 19.4 µM) in [13] (strain S 1).

Source of the values: patent US7563805B2, “Tri-, tetra-substituted-3-aminopyrrolidine derivative” (Daiichi Pharmaceutical Co., Ltd., priority 2005, dated 2009).
